Data: ChEMBL document CHEMBL1126847, “Deoxygenated inositol 1,4,5-trisphosphate analogues and their interaction with metabolic enzymes. (1R,2R,4R)-cyclohexane-1,2,4-tris(methylenesulfonate): a potent selective 5-phosphatase inhibitor” (J Med Chem, 1993)

How the values were obtained:
[1] = Inhibition of Inositol 1,4,5-trisphosphate 3-kinase from rat brain homogenate (S substrate)
[2] = Tested for the ability to displace [3H]1,4,5-IP3 from the 1,4,5-IP3 specific binding site of membranes from the bovine adrenal cortices
[3] = target: T1, Inositol polyphosphate-5-phosphatase A (Homo sapiens, UniProt Q14642); experiment: Tested for inhibition of 5-phosphatase isolated from human erythrocyte membrane (S substrate)
T1 sequence (Q14642 whole entry): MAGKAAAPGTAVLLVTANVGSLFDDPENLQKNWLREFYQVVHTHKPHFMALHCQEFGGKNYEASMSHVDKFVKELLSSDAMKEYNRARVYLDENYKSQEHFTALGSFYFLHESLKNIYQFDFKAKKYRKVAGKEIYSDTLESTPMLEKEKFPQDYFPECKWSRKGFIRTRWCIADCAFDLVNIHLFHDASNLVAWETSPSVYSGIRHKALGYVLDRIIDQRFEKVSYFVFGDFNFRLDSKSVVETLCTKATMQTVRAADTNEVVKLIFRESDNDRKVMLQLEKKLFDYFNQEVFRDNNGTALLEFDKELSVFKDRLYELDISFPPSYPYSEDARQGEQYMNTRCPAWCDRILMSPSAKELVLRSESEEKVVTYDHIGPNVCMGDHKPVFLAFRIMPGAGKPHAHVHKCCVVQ

[4] = Tested for [Ca2+] release in 45 [Ca2+] -preloaded SH-SY5Y cells using saponin; type: functional, cell-based; settings: Homo sapiens
[5] = (§1) Inhibition of Inositol 1,4,5-trisphosphate 3-kinase from rat brain homogenate (R metabolically resistant); type: tissue-based
[6] = target: T1, Inositol polyphosphate-5-phosphatase A; experiment: Tested for inhibition of 5-phosphatase isolated from human erythrocyte membrane (R metabolically resistant)
[7] = as §1
[8] = Inhibition of Inositol 1,4,5-trisphosphate 3-kinase from rat brain homogenate (r metabolically resistant)
[9] = Inhibition of Inositol 1,4,5-trisphosphate 3-kinase from rat brain homogenate (r-metabolically resistant)
[10] = target: T1, Inositol polyphosphate-5-phosphatase A; experiment: Tested for inhibition of 5-phosphatase isolated from human erythrocyte membrane

| Structure (SMILES) | Ki [1] | Ki [2] | Ki [3] | EC50 [4] | Ki [5] | Ki [6] | Ki [7] | Ki [8] | Ki [9] | Ki [10] |
| --- | --- | --- | --- | --- | --- | --- | --- | --- | --- | --- |
| O=P(O)(O)OCC1CCC(COP(=O)(O)O)[C@H](COP(=O)(O)O)C1 (stereo partly specified) | – | > 100 µM | – | > 100 µM | > 600 µM | 144 µM | – | – | – | – |
| O=P(O)(O)CC1CCC(CP(=O)(O)O)[C@H](CP(=O)(O)O)C1 (stereo partly specified) | – | > 100 µM | – | > 100 µM | > 600 µM | 535 µM | – | – | – | – |
| O=S(=O)(O)CC1CC[C@H](CS(=O)(=O)O)C[C@H]1CS(=O)(=O)O (stereo partly specified) | – | > 100 µM | – | > 100 µM | – | > 1000 µM | > 600 µM | – | – | – |
| O=P(O)(O)Cc1ccc(CP(=O)(O)O)c(CP(=O)(O)O)c1 | – | > 100 µM | – | > 100 µM | > 200 µM | 148 µM | – | – | – | – |
| O=S(=O)(O)CC1CC[C@@H](CS(=O)(=O)O)C[C@H]1CS(=O)(=O)O (stereo partly specified) | – | > 100 µM | – | > 100 µM | > 600 µM | – | – | – | – | 3.9 µM |

Stronger by Ki [2], values ahead:

| Ki [1] | Ki [2] | Ki [3] | EC50 [4] | Ki [5] | Ki [6] | Ki [7] | Ki [8] | Ki [9] | Ki [10] | Structure (SMILES) |
| --- | --- | --- | --- | --- | --- | --- | --- | --- | --- | --- |
| – | 3.95 µM | 81.4 µM | > 10 µM | – | – | – | – | 36 µM | – | O=P(O)(O)OC1CCC(OP(=O)(O)O)[C@H](OP(=O)(O)O)C1 (stereo partly specified) |
| – | 0.0396 µM | 16.5 µM | 0.186 µM | – | – | – | 19 µM | – | – | O=P(O)(O)OC1CCC(OP(=O)(O)O)[C@H](OP(=O)(O)O)[C@@H]1O (stereo partly specified) |
| – | 0.0234 µM | 11.5 µM | 0.156 µM | – | – | – | 25 µM | – | – | O=P(O)(O)OC1[C@H](O)CC(OP(=O)(O)O)[C@H](OP(=O)(O)O)[C@@H]1O (stereo partly specified) |
| 0.85 µM | 0.0022 µM | 15 µM | 0.0521 µM | – | – | – | – | – | – | O=P(O)(O)O[C@@H]1[C@H](O)[C@H](O)[C@@H](OP(=O)(O)O)[C@H](OP(=O)(O)O)[C@H]1O [INS(1,4,5)P3] |
